Measurements as given in ChEMBL document CHEMBL5523713, “Development of novel N-aryl-2,4-bithiazole-2-amine-based CYP1B1 degraders for reversing drug resistance” (Eur J Med Chem, 2024).
Activity calls are given as the source filed them. The rule behind the calls is not given here. Peptide text beside a SMILES is read from it. * marks the point of attachment. Cbz = O=C(OCc1ccccc1)*

Experiments:
[1] = target: T1, von Hippel-Lindau disease tumor suppressor/Cytochrome P450 1B1 (Homo sapiens, UniProt Q16678+P40337); test: PROTAC activity at VHL/CYP1B1 in human A549/Taxol cells assessed as degradation by measuring fold change in remaining CYP1B1 level at 1 nM incubated for 24 hrs by Western blotting analysis (reference value: 1); format: ADME, cell-based; conditions: 0.001 µM
T1 sequence (P40337 whole entry, one chain of several): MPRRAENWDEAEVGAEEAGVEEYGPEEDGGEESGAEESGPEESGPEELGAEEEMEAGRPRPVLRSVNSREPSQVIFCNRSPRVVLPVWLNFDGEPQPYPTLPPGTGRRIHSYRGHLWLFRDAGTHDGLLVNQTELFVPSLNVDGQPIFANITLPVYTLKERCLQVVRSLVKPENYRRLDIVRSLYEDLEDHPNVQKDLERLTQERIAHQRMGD

[2] = target: T1, von Hippel-Lindau disease tumor suppressor/Cytochrome P450 1B1; test: PROTAC activity at VHL/CYP1B1 in human A549/Taxol cells assessed as degradation by measuring fold change in remaining CYP1B1 level at 1000 nM incubated for 24 hrs by Western blotting analysis (reference value: 1); format: ADME, cell-based; conditions: 1 µM
[3] = target: T2, Protein cereblon/Cytochrome P450 1B1 (Homo sapiens, UniProt Q16678+Q96SW2); test: PROTAC activity at CRBN/CYP1B1 in human A549/Taxol cells assessed as degradation by measuring fold change in remaining CYP1B1 level at 1 nM incubated for 24 hrs by Western blotting analysis (reference value: 1); format: ADME, cell-based; conditions: 0.001 µM
T2 sequence (Q96SW2 whole entry, one chain of several): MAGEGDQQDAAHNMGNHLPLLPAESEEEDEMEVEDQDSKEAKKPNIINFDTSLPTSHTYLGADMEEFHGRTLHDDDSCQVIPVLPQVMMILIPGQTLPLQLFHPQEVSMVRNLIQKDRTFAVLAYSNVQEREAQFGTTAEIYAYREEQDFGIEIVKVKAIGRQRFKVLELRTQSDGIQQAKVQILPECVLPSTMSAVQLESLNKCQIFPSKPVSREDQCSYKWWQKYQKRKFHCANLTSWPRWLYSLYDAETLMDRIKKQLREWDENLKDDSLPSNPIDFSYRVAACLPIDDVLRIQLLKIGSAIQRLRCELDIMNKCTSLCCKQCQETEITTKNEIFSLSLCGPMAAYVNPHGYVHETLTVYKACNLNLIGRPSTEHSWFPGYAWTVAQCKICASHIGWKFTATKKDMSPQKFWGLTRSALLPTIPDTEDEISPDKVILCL

[4] = target: T2, Protein cereblon/Cytochrome P450 1B1; test: PROTAC activity at CRBN/CYP1B1 in human A549/Taxol cells assessed as degradation by measuring fold change in remaining CYP1B1 level at 1000 nM incubated for 24 hrs by Western blotting analysis (reference value: 1); format: ADME, cell-based; conditions: 1 µM
[5] = target: T1, von Hippel-Lindau disease tumor suppressor/Cytochrome P450 1B1; test: PROTAC activity at VHL/CYP1B1 in human A549/Taxol cells assessed as reduction in CYP1B1 level at 1 uM incubated for 24 hrs by Western blotting analysis; format: ADME, cell-based
[6] = target: T1, von Hippel-Lindau disease tumor suppressor/Cytochrome P450 1B1; test: PROTAC activity at VHL/CYP1B1 in human A549/Taxol cells assessed as reduction in CYP1B1 level at 1 nM incubated for 24 hrs by Western blotting analysis; format: ADME, cell-based; design: scale not given: the % may be the effect or the level left; conditions: 0.001 µM
[7] = target: T1, von Hippel-Lindau disease tumor suppressor/Cytochrome P450 1B1; test: PROTAC activity at VHL/CYP1B1 in human A549/Taxol cells assessed as reduction in CYP1B1 level at 1000 nM incubated for 24 hrs by Western blotting analysis; format: ADME, cell-based; design: scale not given: the % may be the effect or the level left; conditions: 1 µM
[8] = target: T3, Cytochrome P450 1B1 (Homo sapiens, UniProt Q16678); test: Inhibition of recombinant human CYP1B1 using 7-ethyl-O-resorufin as substrate incubated for 30 mins in presence of NADPH by EROD assay; format: ADME; conditions: human, recombinant enzyme, 0.5 h; time 30 min
T3 sequence (Q16678 whole entry): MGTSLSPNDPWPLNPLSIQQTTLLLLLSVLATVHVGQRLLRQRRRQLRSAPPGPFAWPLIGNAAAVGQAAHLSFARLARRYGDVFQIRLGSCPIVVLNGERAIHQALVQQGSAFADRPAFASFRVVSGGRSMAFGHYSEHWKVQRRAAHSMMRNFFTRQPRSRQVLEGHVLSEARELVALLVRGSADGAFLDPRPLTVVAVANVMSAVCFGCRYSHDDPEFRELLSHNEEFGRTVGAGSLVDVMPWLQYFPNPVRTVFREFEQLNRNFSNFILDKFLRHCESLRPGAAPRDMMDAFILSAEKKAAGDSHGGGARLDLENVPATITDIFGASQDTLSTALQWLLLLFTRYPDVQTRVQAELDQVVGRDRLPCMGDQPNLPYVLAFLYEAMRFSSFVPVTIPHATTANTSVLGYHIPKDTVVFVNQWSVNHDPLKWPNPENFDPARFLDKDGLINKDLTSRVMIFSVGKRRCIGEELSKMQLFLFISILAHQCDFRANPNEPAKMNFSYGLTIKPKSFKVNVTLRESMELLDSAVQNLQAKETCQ

[9] = target: T1, von Hippel-Lindau disease tumor suppressor/Cytochrome P450 1B1; test: PROTAC activity at VHL/CYP1B1 in human A549/Taxol cells assessed as reduction in CYP1B1 level incubated for 24 hrs by Western blotting analysis; format: ADME, cell-based
[10] = target: T1, von Hippel-Lindau disease tumor suppressor/Cytochrome P450 1B1; test: PROTAC activity at VHL/CYP1B1 in human A549/Taxol cells assessed as reduction in CYP1B1 level at 10 nM incubated for 24 hrs by Western blotting analysis; format: ADME, cell-based; design: scale not given: the % may be the effect or the level left; conditions: 0.01 µM
[11] = target: T1, von Hippel-Lindau disease tumor suppressor/Cytochrome P450 1B1; test: PROTAC activity at VHL/CYP1B1 in human A549/Taxol cells assessed as reduction in CYP1B1 level at 10 nM incubated for 1 hr by Western blotting analysis; format: ADME, cell-based; conditions: 0.01 µM
[12] = target: von Hippel-Lindau disease tumor suppressor/Cytochrome P450 1A1 (Homo sapiens, UniProt P04798+P40337); test: PROTAC activity at VHL/CYP1A1 (unknown origin); format: ADME, protein assay
Sequence of von Hippel-Lindau disease tumor suppressor/Cytochrome P450 1A1 (P04798 whole entry): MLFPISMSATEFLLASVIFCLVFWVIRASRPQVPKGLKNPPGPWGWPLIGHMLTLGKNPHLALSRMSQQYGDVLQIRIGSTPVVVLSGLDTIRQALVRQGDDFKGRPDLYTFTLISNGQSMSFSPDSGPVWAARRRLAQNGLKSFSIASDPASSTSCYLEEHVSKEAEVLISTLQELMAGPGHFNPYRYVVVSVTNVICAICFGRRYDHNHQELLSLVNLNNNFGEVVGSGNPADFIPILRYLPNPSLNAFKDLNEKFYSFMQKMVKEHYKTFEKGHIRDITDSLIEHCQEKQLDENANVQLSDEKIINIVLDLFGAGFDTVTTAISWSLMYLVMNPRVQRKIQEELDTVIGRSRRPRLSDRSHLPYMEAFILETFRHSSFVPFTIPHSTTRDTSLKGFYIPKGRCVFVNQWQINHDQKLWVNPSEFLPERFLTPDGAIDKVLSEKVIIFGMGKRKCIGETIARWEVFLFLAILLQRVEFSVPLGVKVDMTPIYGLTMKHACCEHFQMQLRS
Sequence of von Hippel-Lindau disease tumor suppressor/Cytochrome P450 1A1 (P40337 whole entry): as the sequence (P40337 whole entry, one chain of several) above

[13] = tested on: A549/TR; test: Reversal of taxol resistance in human A549/Taxol cells assessed as decrease in cell viability at 0.1 nM incubated for 48 to 72 hrs by MTT assay; format: functional, cell-based; conditions: time 48-72 hrs
[14] = tested on: A549/TR; test: Reversal of taxol resistance in human A549/Taxol cells assessed as decrease in cell viability at 1 to 10 nM incubated for 48 to 72 hrs by MTT assay; format: functional, cell-based; conditions: dose 1-10 nM, time 48-72 hrs
[15] = tested on: A549/TR; test: Downregulation of P-glycoprotein expression in human A549/Taxol cells at 0.1 to 10 nM by Western blotting analysis; format: functional, cell-based; conditions: dose 0.1-10 nM
[16] = tested on: A549/TR; test: Inhibition of cell migration in human A549/Taxol cells incubated for 48 hrs by wound healing assay; format: functional, cell-based; conditions: dose 0.1-10 nM
[17] = tested on: A549/TR; test: Inhibition of cell invasion in human A549/Taxol cells at 0.1 to 10 nM incubated for 24 hrs by crystal violet staining based transwell assay; format: functional; conditions: dose 0.1-10 nM
[18] = target: Focal adhesion kinase 1 (Homo sapiens) (UniProt Q05397); test: Inhibition of FAK phosphorylation in human A549/Taxol cells at 0.1 to 10 nM incubated for 24 hrs by Western blotting analysis; format: cell-based; conditions: dose 0.1-10 nM
Sequence of Focal adhesion kinase 1 (Homo sapiens) (Q05397 2-1052 limits assumed): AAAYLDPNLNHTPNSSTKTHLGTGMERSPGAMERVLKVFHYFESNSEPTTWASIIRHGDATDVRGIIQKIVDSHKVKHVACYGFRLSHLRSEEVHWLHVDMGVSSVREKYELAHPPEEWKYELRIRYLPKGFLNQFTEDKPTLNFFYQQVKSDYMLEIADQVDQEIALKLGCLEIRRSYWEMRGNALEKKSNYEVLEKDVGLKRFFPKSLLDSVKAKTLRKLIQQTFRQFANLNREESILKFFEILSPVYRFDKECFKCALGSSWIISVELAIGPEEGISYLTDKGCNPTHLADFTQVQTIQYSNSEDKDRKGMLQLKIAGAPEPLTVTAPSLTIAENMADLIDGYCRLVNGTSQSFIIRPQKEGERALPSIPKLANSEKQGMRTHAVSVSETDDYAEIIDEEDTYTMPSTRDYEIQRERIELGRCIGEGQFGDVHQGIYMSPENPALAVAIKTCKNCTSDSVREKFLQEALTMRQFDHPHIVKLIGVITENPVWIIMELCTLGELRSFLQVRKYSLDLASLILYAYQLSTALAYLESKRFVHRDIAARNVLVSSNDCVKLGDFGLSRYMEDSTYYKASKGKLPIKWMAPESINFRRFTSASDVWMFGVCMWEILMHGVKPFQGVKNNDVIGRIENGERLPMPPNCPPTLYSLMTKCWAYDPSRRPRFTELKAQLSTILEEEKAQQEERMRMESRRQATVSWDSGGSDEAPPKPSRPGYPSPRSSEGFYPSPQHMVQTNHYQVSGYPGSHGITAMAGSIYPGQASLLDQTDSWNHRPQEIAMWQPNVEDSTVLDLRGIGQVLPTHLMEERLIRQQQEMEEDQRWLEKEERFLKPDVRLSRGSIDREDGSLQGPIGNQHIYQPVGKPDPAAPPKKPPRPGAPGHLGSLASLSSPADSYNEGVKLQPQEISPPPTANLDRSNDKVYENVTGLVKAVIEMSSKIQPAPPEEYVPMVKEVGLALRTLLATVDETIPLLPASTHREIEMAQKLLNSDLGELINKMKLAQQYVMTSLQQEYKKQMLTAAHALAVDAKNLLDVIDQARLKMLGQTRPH

[19] = tested on: A549/TR; test: Effect on total FAK protein level in human A549/Taxol cells at 0.1 to 10 nM incubated for 24 hrs by Western blotting analysis; format: functional, cell-based; conditions: dose 0.1-10 nM
[20] = target: Proto-oncogene tyrosine-protein kinase Src (Homo sapiens) (UniProt P12931); test: Inhibition of SRC phosphorylation in human A549/Taxol cells incubated for 24 hrs by Western blotting analysis; format: cell-based; conditions: dose 0.1-10 nM
Sequence of Proto-oncogene tyrosine-protein kinase Src (Homo sapiens) (P12931 2-536 limits assumed): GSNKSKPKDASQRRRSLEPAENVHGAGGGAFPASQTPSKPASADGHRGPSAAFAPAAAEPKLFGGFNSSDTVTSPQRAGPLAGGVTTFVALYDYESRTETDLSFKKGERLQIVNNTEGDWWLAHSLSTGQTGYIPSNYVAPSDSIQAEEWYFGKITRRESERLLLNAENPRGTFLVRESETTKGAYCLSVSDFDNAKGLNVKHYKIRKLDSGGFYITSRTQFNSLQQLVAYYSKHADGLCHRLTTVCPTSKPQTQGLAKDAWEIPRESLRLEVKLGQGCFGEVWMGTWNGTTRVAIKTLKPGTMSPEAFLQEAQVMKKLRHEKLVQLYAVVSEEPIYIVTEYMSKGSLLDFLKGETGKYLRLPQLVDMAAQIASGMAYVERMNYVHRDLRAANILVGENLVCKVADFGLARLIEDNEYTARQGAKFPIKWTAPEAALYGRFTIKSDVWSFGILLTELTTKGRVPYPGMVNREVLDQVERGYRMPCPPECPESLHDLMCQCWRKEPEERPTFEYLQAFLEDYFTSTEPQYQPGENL

[21] = tested on: A549/TR; test: Effect on total SRC protein level in human A549/Taxol cells incubated for 24 hrs by Western blotting analysis; format: functional, cell-based; conditions: dose 0.1-10 nM
[22] = tested on: A549/TR; test: Effect on paxillin protein level in human A549/Taxol cells at 0.1 to 10 nM incubated for 24 hrs by Western blotting analysis; format: functional, cell-based; conditions: dose 0.1-10 nM
[23] = tested on: A549/TR; test: Inhibition of epithelial-to-mesenchymal transition in human A549/Taxol cells assessed as upregulation of E-cadherin protein expression at 0.1 to 10 nM incubated for 24 hrs by immunoblot analysis; format: functional, cell-based; conditions: dose 0.1-10 nM
[24] = tested on: A549/TR; test: Inhibition of epithelial-to-mesenchymal transition in human A549/Taxol cells assessed as downregulation of N-cadherin protein expression at 0.1 to 10 nM incubated for 24 hrs by immunoblot analysis; format: functional, cell-based; conditions: dose 0.1-10 nM
[25] = tested on: A549/TR; test: Inhibition of epithelial-to-mesenchymal transition in human A549/Taxol cells assessed as downregulation of vimentin protein expression at 0.1 to 10 nM incubated for 24 hrs by immunoblot analysis; format: functional, cell-based; conditions: dose 0.1-10 nM

Compound	fold change (FC) [1]	fold change (FC) [2]	fold change (FC) [3]	fold change (FC) [4]	further results
Cc1ncsc1-c1ccc([C@H](C)NC(=O)[C@@H]2C[C@@H](O)CN2C(=O)[C@@H](NC(=O)CCCCCCCCCOc2ccccc2-c2csc(-c3csc(Nc4ccc(Cl)cc4)n3)n2)C(C)(C)C)cc1	1.5	1.5			
O=C1CCC(N2Cc3c(NC(=O)CCCCCCCCCC(=O)Nc4ccc(-c5csc(-c6csc(Nc7ccc(Cl)cc7)n6)n5)cc4)cccc3C2=O)C(=O)N1 (stereo not given)			1.1	1.3	
O=C1CCC(N2Cc3c(NC(=O)CCCCCCCCCCCCCC(=O)Nc4ccc(-c5csc(-c6csc(Nc7ccc(Cl)cc7)n6)n5)cc4)cccc3C2=O)C(=O)N1 (stereo not given)			0.9	1	
O=C1CCC(N2Cc3c(NC(=O)CCCCCC(=O)Nc4ccc(-c5csc(-c6csc(Nc7ccc(Cl)cc7)n6)n5)cc4)cccc3C2=O)C(=O)N1 (stereo not given)			1.1	1	
O=C1CCC(N2C(=O)c3cccc(NC(=O)CN4CCN(CCCCCCCCCC(=O)Nc5ccc(-c6csc(-c7csc(Nc8ccc(Cl)cc8)n7)n6)cc5)CC4)c3C2=O)C(=O)N1 (stereo not given)			0.8	1.2	
Cc1ncsc1-c1ccc([C@H](C)NC(=O)[C@@H]2C[C@@H](O)CN2C(=O)[C@@H](NC(=O)Cn2cc(COCCOCCOc3ccccc3-c3csc(-c4csc(Nc5ccc(Cl)cc5)n4)n3)nn2)C(C)(C)C)cc1	1.1	1.3			
O=C1CCC(N2C(=O)c3cccc(NC(=O)CN4CCN(CCCCCCC(=O)Nc5ccc(-c6csc(-c7csc(Nc8ccc(Cl)cc8)n7)n6)cc5)CC4)c3C2=O)C(=O)N1 (stereo not given)			0.8	0.9	
CC(C)C[C@@H](C=O)NC(=O)[C@H](CC(C)C)NC(=O)[C@H](CC(C)C)NC(=O)OCc1ccccc1 [MG-132] (Cbz-Leu-Leu-Leu-aldehyde)					Activity [5]: Not Active
O=C1CCC(N2Cc3c(NC(=O)CCCCCCCC(=O)Nc4ccc(-c5csc(-c6csc(Nc7ccc(Cl)cc7)n6)n5)cc4)cccc3C2=O)C(=O)N1 (stereo not given)			0.8	1	
Cc1ncsc1-c1ccc([C@H](C)NC(=O)[C@@H]2C[C@@H](O)CN2C(=O)[C@@H](NC(=O)CCCCCCCOc2ccccc2-c2csc(-c3csc(Nc4ccc(Cl)cc4)n3)n2)C(C)(C)C)cc1	0.4	0.2			Activity [6]: 60%; Activity [7]: > 70%
O=C1CCC(N2C(=O)c3cccc(NC(=O)CN4CCN(CCCCCCCCCCC(=O)Nc5ccc(-c6csc(-c7csc(Nc8ccc(Cl)cc8)n7)n6)cc5)CC4)c3C2=O)C(=O)N1 (stereo not given)			1.2	1.5	
Cc1ncsc1-c1ccc([C@H](C)NC(=O)[C@@H]2C[C@@H](O)CN2C(=O)[C@@H](NC(=O)CCCCCCCCOc2ccccc2-c2csc(-c3csc(Nc4ccc(Cl)cc4)n3)n2)C(C)(C)C)cc1	0.7	0.6			
Cc1ncsc1-c1ccc([C@H](C)NC(=O)[C@@H]2C[C@@H](O)CN2C(=O)[C@@H](NC(=O)CCCCCOc2ccccc2-c2csc(-c3csc(Nc4ccc(Cl)cc4)n3)n2)C(C)(C)C)cc1	0.5	1.5			
O=C1CCC(N2C(=O)c3cccc(NC(=O)CN4CCN(CCCCCCCCC(=O)Nc5ccc(-c6csc(-c7csc(Nc8ccc(Cl)cc8)n7)n6)cc5)CC4)c3C2=O)C(=O)N1 (stereo not given)			1	1.6	
O=C1CCC(N2Cc3c(NC(=O)CCCCCCCCCCCC(=O)Nc4ccc(-c5csc(-c6csc(Nc7ccc(Cl)cc7)n6)n5)cc4)cccc3C2=O)C(=O)N1 (stereo not given)			0.7	1	
Cc1ncsc1-c1ccc([C@H](C)NC(=O)[C@@H]2C[C@@H](O)CN2C(=O)[C@@H](NC(=O)CCCCCCCCCCOc2ccccc2-c2csc(-c3csc(Nc4ccc(Cl)cc4)n3)n2)C(C)(C)C)cc1	1.7	1.8			
Cc1ncsc1-c1ccc([C@H](C)NC(=O)[C@@H]2C[C@@H](O)CN2C(=O)[C@@H](NC(=O)CCCCCCOc2ccccc2-c2csc(-c3csc(Nc4ccc(Cl)cc4)n3)n2)C(C)(C)C)cc1	0.5	0.6			inhibition (INH) [8]: Active; Activity [6]: 50%; Activity [7]: 60%; DC50 [9]: 0.1 nM; Activity [10]: 80%; Activity [11]: Active; Activity [12]: Not Active; Activity [13]: Active; Activity [14]: Active; Activity [15]: Active; inhibition [16]: Dose-Dependent Effect; inhibition [17]: Active; inhibition [18]: Active; Activity [19]: inactive; inhibition [20]: Active; Activity [21]: Dose-Dependent Effect; Activity [22]: Active; inhibition [23]: Active; inhibition [24]: Active; inhibition [25]: Active
Cc1ncsc1-c1ccc([C@H](C)NC(=O)[C@@H]2C[C@@H](O)CN2C(=O)[C@@H](NC(=O)CCCCCCCCCCCOc2ccccc2-c2csc(-c3csc(Nc4ccc(Cl)cc4)n3)n2)C(C)(C)C)cc1	0.9	2			
O=C1CCC(N2C(=O)c3cccc(NC(=O)CN4CCN(CCCCCCCCCCCC(=O)Nc5ccc(-c6csc(-c7csc(Nc8ccc(Cl)cc8)n7)n6)cc5)CC4)c3C2=O)C(=O)N1 (stereo not given)			1.5	1.1	
O=C1CCC(N2C(=O)c3cccc(NC(=O)CN4CCN(CCCCCCCC(=O)Nc5ccc(-c6csc(-c7csc(Nc8ccc(Cl)cc8)n7)n6)cc5)CC4)c3C2=O)C(=O)N1 (stereo not given)			0.7	1	
O=C1CCC(N2C(=O)c3cccc(NC(=O)CN4CCN(CCCCCC(=O)Nc5ccc(-c6csc(-c7csc(Nc8ccc(Cl)cc8)n7)n6)cc5)CC4)c3C2=O)C(=O)N1 (stereo not given)			1	1.2	
Cc1ncsc1-c1ccc([C@H](C)NC(=O)[C@@H]2C[C@@H](O)CN2C(=O)[C@@H](NC(=O)Cn2cc(CCCCCOc3ccccc3-c3csc(-c4csc(Nc5ccc(Cl)cc5)n4)n3)nn2)C(C)(C)C)cc1	1.1	0.9			
